{
  "source": "patent US20060264497A1",
  "about": "“Diindolylmethane-based compositions and methods of use thereof for promoting oral mucosal and bone health” (priority 2005, published 2006)",
  "key": {"[1]": {"conditions": "cited from earlier work"}, "[2]": {"tested_on": "rat bone osteoclasts", "conditions": "Gao and Yamaguchi 1999; cited from earlier work"}, "[3]": {"tested_on": "osteoclasts in metaphyseal bone", "test": "Bone histomorphometry: osteoclast number after one year feeding of DIM or I3C", "type": "in vivo, rats", "conditions": "1 year; for Osteoclast Cell Number in Metaphyseal Bone: DIM 20 mg/kg/day (BioResponse-DIM), I3C 50 mg/kg/day in diet", "method": "A one year study was conducted including evaluation of the impact of chronic feeding of DIM and I3C versus control diet in rats. The study used a dose of 20 mg/kg/day DIM, formulated for increased absorption (BioResponse-DIM, BioResponse, Boulder, Colo. [Example 1]), and 50 mg/kg/day Indole-3-Carbinol (I3C) (Sigma Chemical, St. Louis, Mo.). Bone histomorphometry was performed comparing metaphyseal bone in male and female animals using established techiques (Huffer W E, Ruegg P, Zhu J M, Lepoff R B., Semiautomated methods for cancellous bone histomorphometry using a general-purpose video image analysis system. J Microsc. 1994 January; 173 (Pt 1):53-66). Counts of osteoclast number, averaged for male and female groups are summarized in the following chart: […]"}, "[4]": {"test": "Case report: DIM treatment of a subject with rheumatoid arthritis and gingivitis", "type": "in vivo, human", "conditions": "oral, subject with rheumatoid arthritis", "method": "A person with a diagnosis of rheumatoid arthritis was referred for Diinolylmethane (DIM) treatment due to intolerance of oral Plaquenil®. […] They had diffuse small joint pain and elevated Rheumatoid Factor and Antinuclear Antigen serum titers. […] On probing, a total of 12 bleeding sites were documented. They began taking DIM (BioResponse-DIM 150, BioResponse, Boulder, Colo.) taking 50 mg of DIM twice daily.\nA person with a diagnosis of rheumatoid arthritis was referred for Diinolylmethane (DIM) treatment due to intolerance of oral Plaquenil®. […] They had diffuse small joint pain and elevated Rheumatoid Factor and Antinuclear Antigen serum titers. […] On probing, a total of 12 bleeding sites were documented. They began taking DIM (BioResponse-DIM 150, BioResponse, Boulder, Colo.) taking 50 mg of DIM twice daily. […] Subsequently they discontinued use of DIM and noted gradual return of painful swollen joints in their hands over 2 months."}, "[5]": {"test": "Dissolution of DIM containing particles (release rate profile)", "type": "physicochemical", "conditions": "pH 6.8 phosphate buffer, 0.5% Tween 80, 37° C., 50 rpm", "method": "Testing of Dissolution of DIM Containing Particles: In order to determine the release rate profiles of DIM from matrix, particle formulations, a test using pH 6.8 phosphate buffer system containing 0.5% Tween 80 was utilized. The procedure included dissolving an amount of spray dried particles containing a known amount of DIM in a standard dissolution apparatus with standard simulated saliva solution. For the following testing, 900 ml of stock pH 6.8 buffer solution was placed into a round bottom beaker in the dissolution test apparatus. To the solution, 5 g of Tween 80 (Sorbitan Monooleate) was added and mixed while bringing to a temperature of 37° C. To this, 600 mg of a test sample with known DIM content was added to the solution and stirred at 50 rpm. At timed intervals 3.0 ml aliquots of solution was removed and filtered through 0.22 um filter. The absorption of the sample was read at 283 nm on an […], blanking vs. pH 6.8 buffer containing 0.5% Tween 80. The percent released DIM compared to the 100% complete, theoretical level was calculated."}, "[6]": {"tested_on": "mouse osteoclast-like multinucleated cells (OCLs)", "test": "Pit formation assay on dentine slices", "conditions": "0.5-50 micromolar, 24 h and 48 h", "description": "Osteoblasts will be obtained from the calvariae of newborn ddY mice and bone marrow cells will be obtained from the tibiae of male mice and be cocultured in aMEM (Life Technologies, Grand Island, N.Y.) containing 10% FBS, 1α,25-dihydroxyvitamin D3 (10^−8 M) (Wako Pure Chemical, Osaka, Japan) and PGE2 (10^−6 M) (Sigma) in 100-mm-diameter dishes coated with collagen gels (Nitta Gelatin, Osaka). OCLs will be formed within 6 days in culture and will be removed from the dishes by treating with 0.2% collagenase (Wako). The purity of OCLs in this fraction (crude OCL preparation) will be about 5%. To further purify the OCLs, the crude OCL preparation will be replated on culture dishes. After further culture for 8 h, osteoblasts will be removed with PBS containing 0.001% pronase E (Calbiochem, La Jolla, Calif.) and 0.02% EDTA.\nOCLs preparations (15,000 cells/0.1 ml/well) will be seeded on dentine slices (4-mm diameter) which had been placed in 96-well plates. […] Pit formation by OCls will be determined after culture for 24 h and 48 h. […] The numbers of pits on the slices will be counted. To quantitate pit-forming activity of OCLs, the areas of resorption lacunae will also be measured with an image analysis system (LA-525; PIAS Co., Tokyo). The results will be expressed as the percentage of resorbed area with respect to the whole surface area of a dentine slice."}},
  "note": "Marks after values point to notes of the source that are not given here.",
  "data": [
    {"compound": "O=c1c(-c2ccc(O)cc2)coc2cc(O)cc(O)c12", "note": "[Genistein, 4′,5,7-trihydroxyisoflavone]", "values": [
      {"measurement": "Bone mineral density", "setting": "[1]; 52 mg/day, year long clinical trial", "result": "failed to show any measurable improvement"},
      {"measurement": "Serum and urinary indicators of ongoing bone loss", "setting": "[1]; 90 mg/day, clinical trial", "result": "failed to reduce"},
      {"measurement": "Potency of inhibiting the function of osteoclasts relative to daidzein", "setting": "[2]", "result": "about 10 times"}
    ]},
    {"compound": "CC(C)Oc1ccc2c(=O)c(-c3ccccc3)coc2c1", "note": "[Ipriflavone, 3-phenyl-7-propan-2-yloxy-chromen-4-one]", "values": [
      {"measurement": "Measures of bone health", "setting": "[1]; 600 mg/day, 3 years of treatment, controlled trial", "result": "no significant improvement"}
    ]},
    {"compound": "OCc1c[nH]c2ccccc12", "note": "[I3C, Indole-3-carbinol, reference compound]", "values": [
      {"measurement": "Osteoclast Cell Number in Metaphyseal Bone", "setting": "[3]; female rats", "result": 18.3},
      {"measurement": "Osteoclast Cell Number in Metaphyseal Bone", "setting": "[3]; male rats", "result": "14.3*"}
    ]},
    {"compound": "CCN(CCO)CCCC(C)Nc1ccnc2cc(Cl)ccc12", "note": "(stereo not shown) [Plaquenil]", "values": [
      {"measurement": "Tolerance (adverse effect)", "setting": "[4]", "result": "unacceptable dizziness"}
    ]},
    {"compound": "c1ccc2c(Cc3c[nH]c4ccccc34)c[nH]c2c1", "note": "[Microcrystalline DIM, 3,3′-diindolylmethane]", "values": [
      {"measurement": "Percent DIM Released from Particle", "setting": "[5]; 0 minutes", "result": 0, "unit": "%"},
      {"measurement": "Percent DIM Released from Particle", "setting": "[5]; 15 minutes", "result": 55.1, "unit": "%"},
      {"measurement": "Percent DIM Released from Particle", "setting": "[5]; 30 minutes", "result": 73.6, "unit": "%"},
      {"measurement": "Percent DIM Released from Particle", "setting": "[5]; 45 minutes", "result": 78.8, "unit": "%"},
      {"measurement": "Percent DIM Released from Particle", "setting": "[5]; 60 minutes", "result": 83.5, "unit": "%"}
    ]},
    {"compound": "c1ccc2c(Cc3c[nH]c4ccccc34)c[nH]c2c1", "note": "[DIM, 3,3′-diindolylmethane]", "values": [
      {"measurement": "Pit formation by OCLs (osteoclast function and survival)", "setting": "[6]", "result": "inhibition of pit formation"},
      {"measurement": "Osteoclast Cell Number in Metaphyseal Bone", "setting": "[3]; female rats", "result": 14.3},
      {"measurement": "Osteoclast Cell Number in Metaphyseal Bone", "setting": "[3]; male rats", "result": "9.3*"},
      {"measurement": "Change in osteoclast number versus I3C treated and control animals", "setting": "[3]; rats", "result": "reduction in osteoclast number"}
    ]}
  ]
}
